Reference: US20250122181A1, “BENZIMIDAZOLES AS MODULATORS OF IL-17” (Janssen Pharmaceutica NV, priority 2021, published 2025)

Assays:
[1] = system: IL-17A-induced G-CSF production in human normal keratinocyte (NHK); assay: NHK Assay: IL-17A-induced G-CSF production in human normal keratinocyte; type: cell-based; details: Homo sapiens, Keratinocyte, 24 h, IL-17A 5 ng/mL, simple average if tested more than once
Experimental: IL-17A acts directly on keratinocytes through binding to dimeric receptor IL-17RA/RC and drives the production of a number of inflammatory mediators known to be elevated in psoriasis lesional tissue. IL-17A small molecule inhibitors that block the IL-17A to interact with IL-17R would inhibit the IL-17A signaling in its targeted cells such as keratinocytes. The compound functional activity is evaluated for its impact on IL-17A-induced G-CSF production in human normal keratinocyte (NHK).
Adult normal human keratinocytes are cultured in keratinocyte growth medium (Lonza) in a flask till reaching ˜90% confluence, then cells are transferred to a 384-well plate at density of 3000-4000 cell/well. Recombinant human IL-17A (Gibco PHC9174) is pre-incubated with titrated compound or DMSO for 1 h at rt then added to the cell culture plate. The final concentration of IL-17A is 5 ng/mL and DMSO is 0.2%, in the culture containing 5% FBS. Cells are cultured/treated for 24 h at 37° C. Supernatants are collected and G-CSF production is measured through HTRF technology using Human G-CSF Kit (CisBio). G-CSF concentration was extrapolated from the standard curve and IC50 is determined using GraphPad Prism. Cell viability is also evaluated using CellTiter-Glo kit (Promega) and effect of compound on cell viability is compared to DMSO control.

[2] = biological target: IL-17A(FLAG-Tagged): IL-17RA(His-Tagged) (Homo sapiens, UniProt Q16552, K93Q); assay: IL-17A(FLAG-Tagged): IL-17RA(His-Tagged) Binding Disruption Eu-HTRF Assay, Protocol 1; details: Protocol 1, FLAG tagged IL-17A 2.5 nM; simple average if tested more than once
Chain of UniProt Q16552 (Q16552 with tags, fused parts or gaps K93Q): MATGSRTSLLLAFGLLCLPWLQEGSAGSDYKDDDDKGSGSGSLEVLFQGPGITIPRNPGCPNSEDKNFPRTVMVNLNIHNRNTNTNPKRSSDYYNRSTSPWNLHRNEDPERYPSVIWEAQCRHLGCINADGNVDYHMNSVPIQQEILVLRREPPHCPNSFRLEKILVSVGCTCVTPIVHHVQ
Source text: An antibody directed against the FLAG tag of IL-17A (SEQ ID NO: 1) is labeled with the HTRF donor chromophore (Europium-cryptate). IL-17A is present as a dimer that is “locked into” this quaternary structure due to the formation of loop-spanning […] disulfide bridges. The construct of IL-17RA used in the assay excludes the […] portion of the receptor and is fused to a C-terminal 10×His tag (SEQ ID NO:2). An antibody directed against the His tag of the IL-17RA chimera is labeled with the HTRF acceptor chromophore (“D2”). The fluorescence-resonance energy transfer (FRET) depends on the vicinity of the donor chromophore to the acceptor, and interruption of the binding between the IL-17A and IL-17RA causes the reduction/loss of FRET. Therefore, this assay allows to evaluate the compound effect on the binding IL-17A and IL-17RA by monitoring the fluorescence intensity of donor vs acceptor. The assay was run using either Protocol 1 or Protocol 2 as described below.
Protocol 1. 40 nl of 2-fold serial diluted compound solution for total 22 dilution points is added into each well of a 1536-well, white, low-volume, non-binding plate (Greiner #782904), then 2 μl of FLAG tagged IL-17A at 2× final concentration (2.5 nM) in solution of PBS+0.01% Triton-X100 is added to each well. The assay plate is briefly centrifuged then incubated for 1 h at rt. A mixed solution is prepared containing 2×5 nM 10HIS×IL-17RA, 2×2.5 nM Eu-anti-FLAG (CISBIO), 2×5 nM D2-anti-HIS (CISBIO) in PBS+0.01% Triton-X100+200 mM Potassium Fluoride (Sigma 60238) and 2 μl of mix is added to each well of the assay plate. The plate is briefly centrifuged then incubated for 2 h at rt. The HTRF intensities at the wavelength of donor (620 nm) and acceptor (665 nm) are measured using BMG Pherastar. The ratio between intensities at two wavelengths is calculated and plotted against the compound concentration and the data is fitted to a one-site competition model to yield IC50 of the compound.

IC50 [2]	SMILES	IC50 [1]
< 50 nM	CC(C)n1nccc1C(=O)NC(c1nc2cc([C@@H](C3CC3)N3C[C@@H](C(F)(F)F)NC3=O)ccc2[nH]1)[C@@H](C)O[C@@H](C)C(F)(F)F (single isomer, unassigned) [Example 15, N-((1R*,2R)-1-(5-((R)-Cyclopropyl((S)-2-oxo-4-(trifluoromethyl)imidazolidin-1-yl)methyl)-1H-benzo[d]imidazol-2-yl)-2-(((S)-1,1,1-trifluoropropan-2-yl)oxy)propyl)-1-isopropyl-1H-pyrazole-5-carboxamide]	< 50 nM
< 50 nM	Cc1nonc1C(=O)N[C@@H](COC(C)(C)C(F)(F)F)c1nc2cc([C@@H](C3CC3)N3C[C@@H](C4CC4)NC3=O)ccc2[nH]1 [Example 84, N—((R)-1-(5-((R)-Cyclopropyl((R)-4-cyclopropyl-2-oxoimidazolidin-1-yl)methyl)-1H-benzo[d]imidazol-2-yl)-2-((1,1,1-trifluoro-2-methylpropan-2-yl)oxy)ethyl)-4-methyl-1,2,5-oxadiazole-3-carboxamide]	< 50 nM
< 50 nM	[2H]C([2H])([2H])C([2H])([2H])n1nccc1C(=O)N[C@@H](COC(C)(C)C(F)(F)F)c1nc2cc([C@@H](C3CC3)N3C[C@@H](C(F)(F)F)NC3=O)ccc2[nH]1 [Example 4, N—((R)-1-(5-((R)-Cyclopropyl((S)-2-oxo-4-(trifluoromethyl)imidazolidin-1-yl)methyl)-1H-benzo[d]imidazol-2-yl)-2-((1,1,1-trifluoro-2-methylpropan-2-yl)oxy)ethyl)-1-(ethyl-d5)-1H-pyrazole-5-carboxamide]	< 50 nM
< 50 nM	CC(C)n1ncc(F)c1C(=O)N[C@@H](COC(C)(C)C(F)(F)F)c1nc2cc([C@@H](C3CC3)N3C[C@@H](C(F)(F)F)NC3=O)ccc2[nH]1 [Example 3, N—((R)-1-(5-((R)-Cyclopropyl((S)-2-oxo-4-(trifluoromethyl)imidazolidin-1-yl)methyl)-1H-benzo[d]imidazol-2-yl)-2-((1,1,1-trifluoro-2-methylpropan-2-yl)oxy)ethyl)-4-fluoro-1-isopropyl-1H-pyrazole-5-carboxamide]	< 50 nM
< 50 nM	COC[C@H](c1ccc2[nH]c(C(COC(C)(C)C(F)(F)F)NC(=O)c3nonc3C)nc2c1)N1C[C@@H](C(F)(F)F)NC1=O (single isomer, unassigned) [Example 31, N—((R*)-1-(5-((S)-2-Methoxy-1-((S)-2-oxo-4-(trifluoromethyl)imidazolidin-1-yl)ethyl)-1H-benzo[d]imidazol-2-yl)-2-((1,1,1-trifluoro-2-methylpropan-2-yl)oxy)ethyl)-4-methyl-1,2,5-oxadiazole-3-carboxamide]	< 50 nM

Further lines, the compound ahead of its results:

SMILES	IC50 [2]	IC50 [1]
CC(C)n1nccc1C(=O)N[C@@H](COC(C)(C)C(F)(F)F)c1nc2ccc(CN3CC(F)(F)CNC3=O)cc2[nH]1 [Example 29, (R)—N-(1-(6-((5,5-Difluoro-2-oxotetrahydropyrimidin-1(2H)-yl)methyl)-1H-benzo[d]imidazol-2-yl)-2-((1,1,1-trifluoro-2-methylpropan-2-yl)oxy)ethyl)-1-isopropyl-1H-pyrazole-5-carboxamide]	< 50 nM	< 50 nM
Cc1nonc1C(=O)NC(c1nc2cc([C@@H](C3CC3)N3C[C@@H](C(F)(F)F)NC3=O)ccc2[nH]1)[C@@H](C)O[C@H](C)C(F)(F)F (single isomer, unassigned) [Example 10, N-((1R*,2R)-1-(5-((R)-Cyclopropyl((S)-2-oxo-4-(trifluoromethyl)imidazolidin-1-yl)methyl)-1H-benzo[d]imidazol-2-yl)-2-(((R)-1,1,1-trifluoropropan-2-yl)oxy)propyl)-4-methyl-1,2,5-oxadiazole-3-carboxamide]	< 50 nM	< 50 nM
CC(C)(OC[C@@H](NC(=O)c1nonc1C1CC1)c1nc2cc(CN3C[C@@H](C(F)(F)F)NC3=O)ccc2[nH]1)C(F)(F)F (single isomer, unassigned) [Example 16]	> 100 nM	> 100 nM
Cc1nonc1C(=O)N[C@@H](COC(C)(C)C(F)(F)F)c1nc2cc([C@H](N3CC(F)(F)CNC3=O)C3(C#N)CC3)ccc2[nH]1 (relative stereo) [Example 40, N—((R*)-1-(5-((S*)-(1-Cyanocyclopropyl)(5,5-difluoro-2-oxotetrahydropyrimidin-1(2H)-yl)methyl)-1H-benzo[d]imidazol-2-yl)-2-((1,1,1-trifluoro-2-methylpropan-2-yl)oxy)ethyl)-4-methyl-1,2,5-oxadiazole-3-carboxamide]	50 to 100 nM	> 100 nM
C[C@H](O[C@H](C)[C@H](NC(=O)c1nonc1C1CC1)c1nc2cc([C@@H](COC3CC3)N3C[C@@H](C(F)(F)F)NC3=O)ccc2[nH]1)C(F)(F)F [Example 68, N-((1R,2R)-1-(5-((S)-2-Cyclopropoxy-1-((S)-2-oxo-4-(trifluoromethyl)imidazolidin-1-yl)ethyl)-1H-benzo[d]imidazol-2-yl)-2-(((S)-1,1,1-trifluoropropan-2-yl)oxy)propyl)-4-cyclopropyl-1,2,5-oxadiazole-3-carboxamide]		< 50 nM
CO[C@H](CC(F)(F)F)[C@H](NC(=O)c1nonc1C)c1nc2cc(CN3C[C@@H](C(F)(F)F)NC3=O)ccc2[nH]1 (relative stereo) [Example 90, 4-Methyl-N-((1R*,2R*)-4,4,4-trifluoro-2-methoxy-1-(5-(((S)-2-oxo-4-(trifluoromethyl)imidazolidin-1-yl)methyl)-1H-benzo[d]imidazol-2-yl)butyl)-1,2,5-oxadiazole-3-carboxamide]		> 100 nM
[2H]C1([2H])N([C@@H](c2ccc3nc([C@H](COC(C)(C)C(F)(F)F)NC(=O)c4nonc4C4CC4)[nH]c3c2)C2CC2)C(=O)NCC1(F)F [Example 76, 4-Cyclopropyl-N—((R)-1-(5-((R)-cyclopropyl(5,5-difluoro-2-oxotetrahydropyrimidin-1(2H)-yl-6,6-d2)methyl)-1H-benzo[d]imidazol-2-yl)-2-((1,1,1-trifluoro-2-methylpropan-2-yl)oxy)ethyl)-1,2,5-oxadiazole-3-carboxamide]		< 50 nM
Cc1nonc1C(=O)N[C@H](c1nc2cc([C@@H](COC3CC3)N3CC(F)(F)CNC3=O)ccc2[nH]1)[C@@H](C)O[C@@H](C)C(F)(F)F [Example 66, N-((1R,2R)-1-(5-((S)-2-Cyclopropoxy-1-(5,5-difluoro-2-oxotetrahydropyrimidin-1(2H)-yl)ethyl)-1H-benzo[d]imidazol-2-yl)-2-(((S)-1,1,1-trifluoropropan-2-yl)oxy)propyl)-4-methyl-1,2,5-oxadiazole-3-carboxamide]		< 50 nM
[2H]C1([2H])N([C@@H](c2ccc3nc([C@H](COC(C)(C)C(F)(F)F)NC(=O)c4nonc4C)[nH]c3c2)C2CC2)C(=O)NCC1(F)F [Example 77, N—((R)-1-(5-((R)-Cyclopropyl(5,5-difluoro-2-oxotetrahydropyrimidin-1(2H)-yl-6,6-d2)methyl)-1H-benzo[d]imidazol-2-yl)-2-((1,1,1-trifluoro-2-methylpropan-2-yl)oxy)ethyl)-4-methyl-1,2,5-oxadiazole-3-carboxamide]		< 50 nM
Cc1nonc1C(=O)N[C@H](c1nc2ccc(CN3C[C@@H](C(F)(F)F)NC3=O)c(F)c2[nH]1)[C@@H](C)O[C@H](C)C(F)(F)F [Example 92, N-[(1R,2R)-1-[7-Fluoro-6-[[(4S)-2-oxo-4-(trifluoromethyl)imidazolidin-1-yl]methyl]-1H-benzimidazol-2-yl]-2-[(1R)-2,2,2-trifluoro-1-methyl-ethoxy]propyl]-4-methyl-1,2,5-oxadiazole-3-carboxamide]		< 50 nM
